Test results reported in ChEMBL document CHEMBL1201862, “PubChem BioAssay data set” (2004).
Activity calls are given as the source filed them.

Key:
[1] = target: T1, Polyadenylate-binding protein 1 (Homo sapiens, UniProt P11940); assay: MLLE domain peptide-binding blockers, IC50 – biochemical, fluorescence polarization, FITC-PAM2 peptide, dose response (AID 602259); format: functional; settings: read-out: IC50_Mean
[2] = target: T1, Polyadenylate-binding protein 1; assay: MLLE binding blockers, Cy5 peptide tracer – biochemical, fluorescence polarization, Cy5-PAM2 peptide, secondary, miRNA deadenylation inhibitor project, dose response (AID 602260); format: functional; settings: read-out: IC50_Mean
[3] = test system: Streptococcus sp. 'group A'; assay: Streptococcus pyogenes SK(-)GAS viability under kanamycin – luminescence, BacTiterGlo, confirmation, counter-screen for streptokinase expression inhibitor project, dose response (AID 1900); format: functional, organism-based
[4] = target: T2, Streptokinase A (Streptococcus pyogenes serotype M1, UniProt P10520); assay: viability-normalized secreted streptokinase activity reduction – plasminogen activation absorbance, OD405, dose response (AID 1914); format: functional, Streptococcus pyogenes M1 GAS;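 further: secreted streptokinase activity via plasminogen activation per viability signal from cell pellet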
T2 sequence (P10520 whole entry): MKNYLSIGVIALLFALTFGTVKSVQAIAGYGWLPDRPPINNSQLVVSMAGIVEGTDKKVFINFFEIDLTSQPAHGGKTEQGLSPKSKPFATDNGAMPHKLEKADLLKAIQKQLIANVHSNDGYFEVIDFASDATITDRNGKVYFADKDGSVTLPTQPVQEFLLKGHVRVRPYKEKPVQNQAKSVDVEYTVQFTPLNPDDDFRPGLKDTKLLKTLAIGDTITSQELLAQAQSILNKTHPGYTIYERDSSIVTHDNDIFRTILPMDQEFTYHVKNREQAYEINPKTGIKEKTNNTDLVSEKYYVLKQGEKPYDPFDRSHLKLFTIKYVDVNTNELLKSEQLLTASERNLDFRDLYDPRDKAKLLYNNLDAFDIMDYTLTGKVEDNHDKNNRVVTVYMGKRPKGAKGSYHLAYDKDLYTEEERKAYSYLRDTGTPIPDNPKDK

[5] = target: Genome polyprotein (dengue virus type 2, UniProt P29990); assay: flavivirus cap methylation enzyme inhibition – biochemical, confirmation dose response, primary screen (AID 588689); format: functional
Genome polyprotein, sequence (P29990 2492-3391 limits assumed): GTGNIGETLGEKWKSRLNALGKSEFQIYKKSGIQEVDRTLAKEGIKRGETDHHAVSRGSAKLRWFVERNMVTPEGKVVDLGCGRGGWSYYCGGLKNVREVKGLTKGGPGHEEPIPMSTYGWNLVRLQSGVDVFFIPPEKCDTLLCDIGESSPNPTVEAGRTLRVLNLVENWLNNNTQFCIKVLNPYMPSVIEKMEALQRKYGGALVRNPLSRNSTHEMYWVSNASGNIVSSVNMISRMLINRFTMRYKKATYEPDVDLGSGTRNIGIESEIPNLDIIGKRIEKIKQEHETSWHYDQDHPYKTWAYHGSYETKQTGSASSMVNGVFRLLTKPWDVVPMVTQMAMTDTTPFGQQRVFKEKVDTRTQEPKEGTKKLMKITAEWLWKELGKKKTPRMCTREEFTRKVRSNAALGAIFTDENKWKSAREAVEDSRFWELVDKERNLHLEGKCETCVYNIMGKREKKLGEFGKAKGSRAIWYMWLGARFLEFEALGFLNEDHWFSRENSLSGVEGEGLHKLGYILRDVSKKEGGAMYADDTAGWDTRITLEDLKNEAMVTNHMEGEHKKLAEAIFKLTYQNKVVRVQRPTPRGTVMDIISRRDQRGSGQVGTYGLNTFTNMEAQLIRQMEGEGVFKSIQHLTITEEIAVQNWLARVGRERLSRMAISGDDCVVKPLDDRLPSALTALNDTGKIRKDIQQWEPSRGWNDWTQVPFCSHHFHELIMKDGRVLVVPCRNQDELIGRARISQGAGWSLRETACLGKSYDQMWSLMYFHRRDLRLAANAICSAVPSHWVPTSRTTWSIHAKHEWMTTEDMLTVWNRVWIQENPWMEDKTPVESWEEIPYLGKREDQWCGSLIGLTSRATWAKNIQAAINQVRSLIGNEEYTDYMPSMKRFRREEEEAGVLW

[6] = test system: Streptococcus; assay: GAS UMAA2166 growth inhibition – luminescence, BacTiterGlo, counter-screen for streptokinase expression inhibitor project, dose response (AID 1915); format: functional, organism-based;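 further: potency for reduction of bacterial viability or growth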
[7] = target: T3, Calpain-2 catalytic subunit (Sus scrofa, UniProt P43367); assay: m-calpain protease blockers, concentration series – biochemical, fluorogenic peptide substrate, dose response (AID 1420); format: functional
T3 sequence (P43367 whole entry): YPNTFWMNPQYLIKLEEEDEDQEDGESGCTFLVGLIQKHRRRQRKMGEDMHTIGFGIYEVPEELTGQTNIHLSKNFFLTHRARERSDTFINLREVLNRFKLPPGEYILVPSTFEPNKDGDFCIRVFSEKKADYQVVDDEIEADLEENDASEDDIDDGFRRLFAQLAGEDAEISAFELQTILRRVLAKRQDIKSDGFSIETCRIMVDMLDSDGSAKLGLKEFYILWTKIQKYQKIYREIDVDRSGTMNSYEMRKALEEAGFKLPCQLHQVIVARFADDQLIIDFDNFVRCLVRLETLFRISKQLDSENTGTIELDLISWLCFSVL

[8] = target: Induced myeloid leukemia cell differentiation protein Mcl-1 (Homo sapiens, UniProt Q07820); format: functional
Induced myeloid leukemia cell differentiation protein Mcl-1, sequence (Q07820 whole entry): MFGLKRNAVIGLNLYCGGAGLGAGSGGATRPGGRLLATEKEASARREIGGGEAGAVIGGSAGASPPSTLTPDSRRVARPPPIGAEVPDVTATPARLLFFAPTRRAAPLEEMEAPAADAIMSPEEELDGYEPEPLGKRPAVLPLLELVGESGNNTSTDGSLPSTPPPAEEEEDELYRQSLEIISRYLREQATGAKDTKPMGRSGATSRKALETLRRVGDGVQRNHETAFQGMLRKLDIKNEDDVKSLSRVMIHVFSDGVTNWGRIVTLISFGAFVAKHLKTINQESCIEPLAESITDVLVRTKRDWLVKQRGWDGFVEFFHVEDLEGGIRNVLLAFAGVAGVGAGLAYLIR

[9] = target: T4, Long-chain-fatty-acid--AMP ligase FadD28 (Mycobacterium tuberculosis, UniProt P9WQ59); assay: Fluorescence polarization aasay to screen for inhibitors that compete for the binding of FadD28 to a bisubstrate Measured in Biochemical System Using Plate Reader - 2147-01_Inhibitor_Dose_CherryPick_Activity.; format: functional, Mycobacterium tuberculosis H37Rv
T4 sequence (P9WQ59 whole entry): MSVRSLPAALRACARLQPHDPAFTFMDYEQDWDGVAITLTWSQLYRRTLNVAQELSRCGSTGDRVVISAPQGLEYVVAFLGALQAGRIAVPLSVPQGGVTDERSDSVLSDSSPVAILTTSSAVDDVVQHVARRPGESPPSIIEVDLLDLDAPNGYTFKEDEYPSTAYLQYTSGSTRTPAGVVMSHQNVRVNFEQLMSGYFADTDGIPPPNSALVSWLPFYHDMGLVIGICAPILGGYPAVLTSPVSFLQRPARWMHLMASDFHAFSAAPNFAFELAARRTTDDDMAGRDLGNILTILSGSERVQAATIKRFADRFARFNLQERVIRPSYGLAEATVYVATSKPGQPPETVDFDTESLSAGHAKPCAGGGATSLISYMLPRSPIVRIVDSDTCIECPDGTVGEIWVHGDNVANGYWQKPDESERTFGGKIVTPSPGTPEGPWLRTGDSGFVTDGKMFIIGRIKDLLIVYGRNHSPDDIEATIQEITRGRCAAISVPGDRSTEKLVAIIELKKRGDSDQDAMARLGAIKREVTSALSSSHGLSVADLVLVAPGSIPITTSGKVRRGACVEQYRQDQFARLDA

[10] = target: T5, Rac GTPase-activating protein 1 (Homo sapiens, UniProt Q9H0H5); assay: blockers of MgcRacGAP-driven Rac1 GTP hydrolysis – biochemical, ADP Hunter fluorescence, primary and confirmatory, confirmation (AID 624330); format: functional
T5 sequence (Q9H0H5 whole entry): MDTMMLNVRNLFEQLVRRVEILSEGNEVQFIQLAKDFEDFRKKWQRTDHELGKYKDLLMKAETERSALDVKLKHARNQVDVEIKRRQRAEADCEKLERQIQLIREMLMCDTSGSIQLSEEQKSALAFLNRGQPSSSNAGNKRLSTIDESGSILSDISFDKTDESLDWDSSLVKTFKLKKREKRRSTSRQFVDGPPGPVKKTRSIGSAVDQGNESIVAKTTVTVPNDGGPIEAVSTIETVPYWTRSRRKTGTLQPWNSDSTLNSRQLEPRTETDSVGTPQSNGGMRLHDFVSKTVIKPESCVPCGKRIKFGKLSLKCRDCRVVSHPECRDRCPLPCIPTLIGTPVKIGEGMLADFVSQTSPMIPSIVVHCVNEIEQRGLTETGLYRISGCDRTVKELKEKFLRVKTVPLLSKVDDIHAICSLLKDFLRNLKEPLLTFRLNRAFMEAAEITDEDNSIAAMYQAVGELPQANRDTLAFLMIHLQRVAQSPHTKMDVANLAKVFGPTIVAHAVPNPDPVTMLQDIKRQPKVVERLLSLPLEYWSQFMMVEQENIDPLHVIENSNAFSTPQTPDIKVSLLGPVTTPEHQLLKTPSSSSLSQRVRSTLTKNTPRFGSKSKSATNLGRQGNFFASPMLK

[11] = target: Paired box protein Pax-8 (Homo sapiens, UniProt Q06710); assay: PAX8 transcriptional activity inhibition in RMG-I – RMG-I cells, luciferase, cherry-pick, dose response (AID 687027); format: functional, cell-based;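 further: luciferase reporter driven by Pax8 target thyroperoxidase promoter measured by SteadyGlo luminescence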
Paired box protein Pax-8, sequence (Q06710 whole entry, the tested form may be a part): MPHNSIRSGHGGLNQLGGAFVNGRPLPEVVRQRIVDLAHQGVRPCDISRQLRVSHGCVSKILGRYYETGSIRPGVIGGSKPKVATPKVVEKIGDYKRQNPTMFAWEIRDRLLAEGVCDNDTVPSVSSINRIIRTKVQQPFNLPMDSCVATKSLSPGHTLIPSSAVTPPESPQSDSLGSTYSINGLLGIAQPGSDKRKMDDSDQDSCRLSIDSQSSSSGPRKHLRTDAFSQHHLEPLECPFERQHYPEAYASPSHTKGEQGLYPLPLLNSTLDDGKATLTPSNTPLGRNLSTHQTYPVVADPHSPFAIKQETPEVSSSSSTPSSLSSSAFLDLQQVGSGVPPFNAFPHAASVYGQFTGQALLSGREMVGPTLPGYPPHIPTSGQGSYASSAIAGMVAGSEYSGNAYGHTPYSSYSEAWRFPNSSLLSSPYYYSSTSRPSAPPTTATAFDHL

[12] = blockers of HIV-1 envelope-mediated cell-cell fusion – cherry-pick, dose response (AID 652057); format: functional, cell-based
[13] = HIV-1 AD8 envelope cell-cell fusion blockers – cherry-pick, dose response (AID 652062); format: functional, cell-based;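 further: luciferase signal from cell-cell fusion driven by HIV-1 clade B AD8 Env; potency is for inhibitors of fusion seen as a drop in luminescence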
[14] = cells; format: functional, cell-based
[15] = cells; format: functional, cell-based; remark: listed apart in the source

T1 sequence (P11940 whole entry, the tested form may be a part): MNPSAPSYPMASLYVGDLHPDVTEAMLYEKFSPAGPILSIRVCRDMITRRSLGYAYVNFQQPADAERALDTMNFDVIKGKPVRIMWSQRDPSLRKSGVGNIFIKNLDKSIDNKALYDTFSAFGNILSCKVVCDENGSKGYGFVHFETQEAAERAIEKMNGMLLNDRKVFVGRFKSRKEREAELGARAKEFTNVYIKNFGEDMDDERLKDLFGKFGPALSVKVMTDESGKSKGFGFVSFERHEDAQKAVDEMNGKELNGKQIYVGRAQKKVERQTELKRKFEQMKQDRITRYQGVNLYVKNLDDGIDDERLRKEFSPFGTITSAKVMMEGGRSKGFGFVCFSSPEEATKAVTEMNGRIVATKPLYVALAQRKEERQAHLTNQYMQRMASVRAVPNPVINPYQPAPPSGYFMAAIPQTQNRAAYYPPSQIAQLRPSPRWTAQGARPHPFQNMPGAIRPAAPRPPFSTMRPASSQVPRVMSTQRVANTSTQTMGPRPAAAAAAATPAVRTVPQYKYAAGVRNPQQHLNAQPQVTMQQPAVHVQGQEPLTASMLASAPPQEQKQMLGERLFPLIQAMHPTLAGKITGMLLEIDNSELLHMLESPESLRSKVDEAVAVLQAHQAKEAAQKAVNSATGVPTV

SMILES: O=C(c1nc2ccccn2c1CN1CCCC(O)C1)N1CCN(C2CCCCC2)CC1 (stereo unspecified)
- IC50 [1]: > 66 µM (inactive)
- IC50 [2]: > 66 µM (inactive)

SMILES: Cc1c(C(=O)NC(=S)Nc2ccc3c4c(cccc24)CC3)cccc1[N+](=O)[O-]
- IC50 [1]: > 66 µM (inactive)
- IC50 [2]: > 66 µM (inactive)

SMILES: COCCNC(=O)c1c(NC(=O)c2ccco2)n(Cc2ccccc2)c2nc3ccccc3nc12
- EC50 [3]: 12.8 µM (active)
- EC50 [4]: > 150 µM (not active)
- IC50 [5]: > 100 µM (active)
- EC50 [6]: > 150 µM (not active)

SMILES: O=C1c2cccc3cccc(c23)C(=O)N1CCCN1CCN(c2ccc(F)cc2)CC1
- IC50 [7]: 8.84 µM (not active)

SMILES: O=C1NC(=S)N(c2ccccc2F)C(=O)/C1=C\c1cccs1
- IC50 [5]: 70.3 µM (active)
- IC50 [8]: 2.07 µM (active)

SMILES: Cc1c(N2C(=O)/C(=C3\C(=O)N(CC(=O)O)c4ccccc43)SC2=S)c(=O)n(-c2ccccc2)n1C
- IC50 [1]: > 66 µM (inactive)
- IC50 [2]: > 66 µM (inactive)

SMILES: Cc1cc2c(C)ccc(C)c2nc1SCC(=O)c1cccs1
- IC50 [7]: < 0.4 µM (not active)

SMILES: COC(=O)Nc1ccc(SCC(=O)c2cccc([N+](=O)[O-])c2)cc1
- IC50 [1]: > 66 µM (inactive)
- IC50 [2]: > 66 µM (inactive)

SMILES: CCOCCCn1c(=N)c(S(=O)(=O)c2ccc(C)cc2)cc2c(=O)n3cc(C)ccc3nc21
- IC50 [1]: 53.1 µM (inactive)
- IC50 [2]: > 66 µM (inactive)

SMILES: O=C(O)c1ccccc1SC1CC(=O)N(c2ccc3c(c2)OCO3)C1=O (stereo unspecified)
- IC50 [1]: > 66 µM (inactive)
- IC50 [2]: > 66 µM (inactive)

SMILES: COc1ccc(C(=O)OCC(=O)c2ccccc2)cc1S(=O)(=O)N1CCOCC1
- AC50 [9]: > 100 µM (inactive)

SMILES: COc1cccc(NC(=O)Cn2c(=O)oc3ccccc32)c1
- AC50 [9]: 8.71 µM (active)

SMILES: C=CCc1cc(C)ccc1OCCCn1ccnc1
- IC50 [10]: 127 µM (active)

SMILES: COc1cccc(CNc2ccc(F)c([N+](=O)[O-])c2)c1O
- IC50 [7]: 7.78 µM (active)

SMILES: CCCCn1c(S)nnc1-c1csc(CCC)c1
- IC50 [7]: 24.1 µM (not active)

SMILES: Cc1cc(NC(=O)CSc2nc3sc4c(c3c(=O)n2C)CCCC4)no1
- IC50 [7]: 25.2 µM (not active)

SMILES: Cc1onc(-c2c(F)cccc2Cl)c1C(=O)NC(=S)NC1CCSC1=O (stereo unspecified)
- IC50 [1]: > 66 µM (inactive)
- IC50 [2]: > 66 µM (inactive)

SMILES: CC(C)(C)N(Cc1ccc2c(c1)OCO2)C(=O)/C=C\[S+]([O-])c1ccccc1 (stereo unspecified)
- AC50 [11]: 6.14 µM (active)
- IC50 [10]: 125 µM (active)

SMILES: O=C(CSc1nc(O)cc(=O)n1-c1ccccc1)Nc1nc2ccccc2s1
- AC50 [9]: 32 µM (active)

SMILES: COc1ccc2c(c1)Cc1cc(NC(=O)c3ccccc3-c3ccccc3C(=O)O)ccc1-2
- IC50 [5]: 46.3 µM (active)
- AC50 [9]: 89.9 µM (active)

SMILES: COc1ccccc1N1CCN(C(=O)[C@H](C)NS(=O)(=O)c2ccc3c(c2)OCCCO3)CC1
- IC50 [1]: > 66 µM (inactive)
- IC50 [2]: > 66 µM (inactive)

SMILES: COc1cccc(S(=O)(=O)N(C)C[C@@H]2Oc3cc(C#CCC(C)C)ccc3S(=O)(=O)N([C@H](C)CO)C[C@@H]2C)c1
- AC50 [12]: 20.1 µM (active)
- AC50 [13]: 17.9 µM (active)

SMILES: COc1cc(/C=N/NC(=O)CNC(=O)c2ccc3c(c2)OCCO3)ccc1O
- IC50 [10]: 54.9 µM (active)

SMILES: Oc1nncc(N/N=C\c2cccs2)c1Cl
- EC50 [14]: > 29.9 µM (inactive)
- IC50 [15]: > 29.9 µM (inactive)

SMILES: O=c1c(-c2ccc(O)cc2)coc2cc(O)ccc12 [DAIDZEIN]
- IC50 [10]: 91.3 µM (active)
